The record followed here is US9314029B2, “Control and repellency of mosquitoes” (BEDOUKIAN RESEARCH, INC., priority 2012, dated 2016).

Where only a bound is given, the exact number is not on record here.

Common to all, as to type: in vivo
Data set [1] concerns Aedes aegypti. Kind of data set: Repellency on treated membrane-covered blood-filled wells. The following applies: 20 min; for Avg % Repellency: relative to control. As to the method:
(§1) The invention is illustrated by, but not limited to, the following examples. • Five replicates of 250 adult female mosquitoes each were placed in clear plastic cages with access to five warmed, blood-filled, membrane-covered wells. The mosquitoes were Aedes aegypti unless otherwise noted. Membranes were treated with repellent. Five replicates were tested. Each replicate used a fresh batch of mosquitoes, blood and treated membranes. The number of mosquitoes probing each well was recorded at two minute intervals for 20 minutes. The total numbers of probes on each well were tallied at the end of the observation period and the average percentage repellency relative to the control was calculated for each formulation.

Data set [2] concerns Aedes aegypti. Briefly: Toxicity to mosquitoes of treated surface (aluminum foil), 5 min exposure. The settings on record: 2.5% in ethanol, dried on foil. As to the method:
A test was designed to determine if two test samples at 2 concentrations applied to a surface are toxic to mosquitoes. Aluminum foil squares, […] were treated with one of the test samples and after drying were placed on top of large Petri dishes, 6″ in diameter. Inverted polystyrene cups, 3.5″ in diameter and 3″ high, each with a circular hole drilled through the bottom, and the sides and top painted with Fluon, were used as the treatment containers. They were placed on top of the Petri dishes and secured with rubber bands. Mosquitoes were aspirated and gently blown through the drilled hole into the arena. A plastic disc was then placed over the hole. Five replicates of ten female Aedes aegypti were used for the test sample treatment and an additional 5 replicates of 10 mosquitoes were used for solvent control. Mosquitoes were constantly exposed to the dried test material for 5 minutes, after which time they were transferred into clean containers, where they were provided a sucrose solution for nourishment. The formal observations for knockdown were made at 1 and 4 hours. At 24 hours the numbers of live, moribund and dead mosquitoes were counted.

For data set [3], the system named is Culex quinquefasciatus. Briefly: Human forearm-in-cage test, time to first confirmed bite. The following applies: 10%, max 8 hours. As to the method:
(§2) In addition, human testing was performed to determine the efficacy of compounds from structure (I). Mosquito species used are described in the tables below. Each test subject was exposed to 2 products each test day. The application rate was between 0.65 ml and 1 ml/250 cm^2 for all repellents. The actual amount of repellent used was based upon the amount that provides thorough coverage of the 250 cm^2 treatment area. A repellent was applied using either a micropipette or a syringe minus the needle. The repellents were then evenly spread on the treatment area with a gloved finger. Each test subject's forearms were allowed to air dry for approximately 30 minutes prior to the first exposure. The study coordinator or technician assisted the test subjects in inserting their arms into the test cages containing 200 mosquitoes, taking care not to rub them on the cloth sleeve, to confirm that the insects were biting. If fewer than 10 mosquitoes land on the untreated arm in 60 seconds (all would normally bite), fresh mosquitoes will be added. Typically, the ten (10) landings took place within 10-30 seconds. Both treated arms were inserted into a cage; there were two subjects (4 arms) per cage. The test subjects exposed their treated forearms to the mosquitoes in the test cages for 5 minutes. The subjects then remove their arms from the cages with assistance from the study coordinator or a technician. Exposures of each arm were repeated every 30 minutes until the repellent on that arm was determined to be no longer effective (‘breakdown’) or until 8 hours have elapsed, whichever occurred first. Breakdown occurs when the first confirmed bite is noted. A confirmed bite occurs when a bite is followed by a second bite in the same exposure period or in the next succeeding exposure period. The second bite becomes the confirming bite and the breakdown time is taken as the time of the first bite. The average of two repetitions is given.

Data set [4] has as its system Anopheles quadrimaculatus. The description is as above. The following applies: 10%, max 8 hours. As to the method: as §2
Data set [5] concerns Aedes aegypti. The data set is described as above. The following applies: max 8 hours. As to the method:
as §2

Data set [6] relates to Aedes aegypti. The description is as above. The following applies: without the use of polymers or other inert ingredients; species not stated.
Data set [7] deals with Culex quinquefasciatus. Briefly: Repellency on treated membrane-covered blood-filled wells. The settings on record: 7% in isopropanol, 20 min; for Avg % Repellency: relative to control. As to the method:
as §1

In the case of `CCCCC1CC(=O)C=C(C)C1` (stereo not shown) [3-methyl-5-butyl-2-cyclohexenone], in the data set on Aedes aegypti [1] (5% in isopropanol), the “Avg # Probes” value came to 1 and the “Avg % Repellency” value was found to be 97%. In the data set with Aedes aegypti [2], the 1 hr knockdown came out at 100%, the 4 hr knockdown was 100% and the 24 hr mortality is reported as 88%.
For `CCCCCCCC1CC(=O)C=C(C)C1` (stereo not shown) [3-methyl-5-heptyl-2-cyclohexenone], in the data set with Aedes aegypti [1] (5% in isopropanol), the “Avg # Probes” value turned out to be 0 and the “Avg % Repellency” value amounted to 99%. In the data set on Aedes aegypti [2], this compound returned a 1 hr knockdown of 100%, a 4 hr knockdown of 100% and a 24 hr mortality of 98%.
For `CCCCCCC1CC(C)=CC(O)C1` (stereo not shown) [3-methyl-5-hexyl-2-cyclohexenol], in the data set on Aedes aegypti [1] (5% in isopropanol), the “Avg # Probes” value was found to be 1 and the “Avg % Repellency” value is reported as 91%.
With `CCCCCCC1CC(=O)C=C(C)C1` (stereo not shown) [3-methyl-5-hexyl-2-cyclohexenone], in the data set with Aedes aegypti [1] (5% in isopropanol), the “Avg # Probes” value was 0 and the “Avg % Repellency” value was 100%.
As to `CCN(CC)C(=O)c1cccc(C)c1` [DEET ®, N,N-Diethyl-m-toluamide, reference compound], the “Avg # Probes” value in the data set on Aedes aegypti [1] (4% in isopropanol) turned out to be 8.4; in the data set on Aedes aegypti [1] (10% in isopropanol) it was 0.8. Moreover, the “Avg % Repellency” value came to 90.8% in the data set on Aedes aegypti [1] (4% in isopropanol) and 98% in the data set on Aedes aegypti [1] (10% in isopropanol).
With `CCCCCC1C(O)CCC1CC(=O)OCC` (stereo not shown) [Ethyl Dihydrojasmolate], in the data set with Aedes aegypti [1] (7% in isopropanol), the “Avg # Probes” value is given as 0 and the “Avg % Repellency” value was determined as 100%.
For `CCCCCCOC(=O)CC1CCC(=O)C1CCCCC` (stereo not shown) [Hexyl Dihydrojamonate] the same measures were 30.4 and 66.1%.
Take `CCCCCC1C(O)CCC1CC(=O)OC` (stereo not shown) [Methyl Dihydrojasmolate]: in the data set with Aedes aegypti [1] (4% in isopropanol), the “Avg # Probes” value stood at 0.6 and the “Avg % Repellency” value came out at 98.8%. In the data set on Aedes aegypti [1] (7% in isopropanol), the “Avg # Probes” value is listed as 0 and the “Avg % Repellency” value came out at 100%.
Consider `CC1CCC(C(C)(C)O)C(O)C1` (stereo not shown) [PMD, p-Menthane-3,8-diol, reference compound], for which the “Avg # Probes” value with Aedes aegypti [1] (7% in isopropanol) came to 9. Moreover, the “Avg % Repellency” value in the data set on Aedes aegypti [1] (7% in isopropanol) is 79.2%. Also, the “100% bite protection time” value in the data set on Culex quinquefasciatus [3] came out at 4.25 h; in data set [4], 6.75 h; in the data set on Aedes aegypti [5] (5% in isopropanol), 2.75 h; in the data set with Aedes aegypti [5] (10% in isopropanol), 6.25 h.
In the case of `CCCCCC1C(O)CCC1CC(=O)OCC=C(C)C` (stereo not shown) [Prenyl Dihydrojasmolate], in the data set on Aedes aegypti [1] (7% in isopropanol), the “Avg # Probes” value came to 3.2 and the “Avg % Repellency” value worked out at 92.2%.
Consider `CCCCCC1C(=O)CCC1CC(=O)OCC=C(C)C` (stereo not shown) [Prenyl Dihydrojasmonate], for which, in the data set on Aedes aegypti [1] (7% in isopropanol), the “Avg # Probes” value came out at 2.8 and the “Avg % Repellency” value was found to be 92.6%.
On to `CCCCCC1C(=O)CCC1CC(=O)OCCC` (stereo not drawn) [Propyl Dihydrojasmonate - high epi, Propyl Dihydrojasmonate], for which, in the data set on Aedes aegypti [1] (2.5% in isopropanol), the “Avg # Probes” value is recorded as 2 and the “Avg % Repellency” value amounted to 95%.
For `CCCCCC1C(=O)CCC1CC(=O)OCCC` (stereo not drawn) [Propyl Dihydrojasmonate - low epi, Propyl Dihydrojasmonate], in the data set on Aedes aegypti [1] (2.5% in isopropanol), the “Avg # Probes” value was determined as 6 and the “Avg % Repellency” value was 85%.
On to `CCCCCC1C(=O)CCC1CC(=O)OCCC` (stereo not shown) [Propyl Dihydrojasmonate], for which the results for the “Avg # Probes” value in the data set with Aedes aegypti [1] (5% in isopropanol), in the data set on Aedes aegypti [1] (5% in squalane) and with Aedes aegypti [1] (7% in isopropanol) were 4, 0 and 2.6, respectively. Further, the “Avg % Repellency” value with Aedes aegypti [1] (5% in isopropanol) is 97%; with Aedes aegypti [1] (5% in squalane) it was 99%; in the data set with Aedes aegypti [1] (7% in isopropanol) it was 95.6%. Besides, the “100% bite protection time” value with Aedes aegypti [5] (15% in isopropanol) is under 0.5 hr ^; in the data set with Aedes aegypti [5] (30% in isopropanol), 1 h; in the data set with Aedes aegypti [5] (30% in squalane) it was 2.75 h. This compound returned a prolonged repellency in the data set with Aedes aegypti [6] of at least 8 h.
As for `CCCCCC1C(=O)CCC1CC(C)=O` (stereo not shown) [amyl cyclopentanone propanone], in the data set with Aedes aegypti [1] (7% in isopropanol), the “Avg # Probes” value is listed as 0 and the “Avg % Repellency” value is reported as 100%.
For `CCCCCCCC1CCCC(=O)O1` (stereo not shown) [delta-dodecalactone] the same measures were 0 and 100%.
Take `CCCCCCCCCC1CCCC(=O)O1` (stereo not shown) [delta-tetradecalactone]: in the data set with Aedes aegypti [1] (7% in isopropanol), the “Avg # Probes” value amounted to 1.6 and the “Avg % Repellency” value turned out to be 97.3%.
Regarding `CCCCCC1C(O)CCC1CCO` (stereo not shown) [dihydrojasmindiol], in the data set with Aedes aegypti [1] (7% in isopropanol), the “Avg # Probes” value is 7.2 and the “Avg % Repellency” value is listed as 84.3%.
Consider `CCCCCCCCC1(C)CCC(=O)O1` (stereo not shown) [gamma Methyl Dodecalactone], for which, in the data set on Aedes aegypti [1] (5% in isopropanol), the “Avg # Probes” value came to 1 and the “Avg % Repellency” value is given as 98%.
`CCCCCCCCCC1(C)CCC(=O)O1` (stereo not shown) [gamma Methyl Tridecalactone]: in the data set on Aedes aegypti [1] (5% in isopropanol), the “Avg # Probes” value was 4 and the “Avg % Repellency” value was determined as 96%.
Turning to `CCCCCCCCC1CCC(=O)O1` (stereo not shown) [gamma-dodecalactone], in the data set with Culex quinquefasciatus [7], the “Avg # Probes” value is 0 and the “Avg % Repellency” value is 100%. For the same compound, in the data set with Aedes aegypti [1] (7% in isopropanol), the “Avg # Probes” value was 0 and the “Avg % Repellency” value was 100%. Moreover, in the data set on Aedes aegypti [5] (10% in isopropanol), the “100% bite protection time” value stood at 1.25 h.
Turning to `CCCCCC1CCC(=O)O1` (stereo not shown) [gamma-nonalactone], in the data set on Aedes aegypti [1] (7% in isopropanol), the “Avg # Probes” value turned out to be 20.4 and the “Avg % Repellency” value turned out to be 77.1%.
With `CCCCCCCCCCC1CCC(=O)O1` (stereo not shown) [gamma-tetradecalactone], in the data set on Aedes aegypti [1] (7% in isopropanol), the “Avg # Probes” value was found to be 0.8 and the “Avg % Repellency” value was 98.9%. Besides, the “100% bite protection time” value in the data set with Aedes aegypti [5] (15% in isopropanol) is listed as 0.5 hr^.
With `CCCCCCCCCC1CCC(=O)O1` (stereo not shown) [gamma-tridecalactone], in the data set with Aedes aegypti [1] (5% in isopropanol), the “Avg # Probes” value is recorded as 3.1 and the “Avg % Repellency” value stood at 94.4%. In the data set on Aedes aegypti [1] (7% in isopropanol), the “Avg # Probes” value came to 1.8 and the “Avg % Repellency” value stood at 97.5%. The “100% bite protection time” value with Aedes aegypti [5] (30% in isopropanol) is 1 h.
For the compound `CCC(C)=CCCC(C)=CCC1CCCC1O` (stereo not shown) [methyl apritol], in the data set with Aedes aegypti [1] (7% in isopropanol), the “Avg # Probes” value came out at 6.6 and the “Avg % Repellency” value was 91.9%. Also, in the data set with Aedes aegypti [1] (10% in isopropanol), the “Avg # Probes” value is 6.8 and the “Avg % Repellency” value is 89.2%.
As for `CC/C(C)=C/CC/C(C)=C/CC1CCCC1=O` (stereo not shown) [methyl apritone], the “Avg # Probes” value in the data set with Culex quinquefasciatus [7] was determined as 0; in the data set on Aedes aegypti [1] (7% in isopropanol), 7.6; in the data set with Aedes aegypti [1] (10% in isopropanol) it was 3.6. The “Avg % Repellency” value in the data set with Culex quinquefasciatus [7] is recorded as 100%; in the data set on Aedes aegypti [1] (7% in isopropanol) it was 90.4%; with Aedes aegypti [1] (10% in isopropanol), 93.9%. In the data set with Aedes aegypti [5] (10% in isopropanol), the “100% bite protection time” value is under 0.5 hr ^.
As to `CCCCCC1C(=O)CCC1CC(=O)N(CC)CC` (stereo not shown) [methyl dihydrojasmonate amide], in the data set on Aedes aegypti [1] (2.5% in isopropanol), the “Avg # Probes” value is recorded as 18.6 and the “Avg % Repellency” value was found to be 55%. For the same compound, in the data set with Aedes aegypti [1] (5% in isopropanol), the “Avg # Probes” value is 6.8 and the “Avg % Repellency” value is recorded as 90.1%.
In the case of `CC(C)CCCC(C)CCC1CCCC1=O` (stereo not shown) [tetrahydroapritone], in the data set on Aedes aegypti [1] (7% in isopropanol), the “Avg # Probes” value turned out to be 3.8 and the “Avg % Repellency” value came to 93.7%.
Consider `CCC(C)CCCC(C)CCC1CCCC1=O` (stereo not shown) [tetrahydromethyl apritone], for which, in the data set with Aedes aegypti [1] (7% in isopropanol), the “Avg # Probes” value turned out to be 11 and the “Avg % Repellency” value is given as 74.9%.
For the compound dihydrojasmolactone, in the data set with Aedes aegypti [1] (7% in isopropanol), the “Avg # Probes” value was 0 and the “Avg % Repellency” value was found to be 100%.
On to farnesyl cyclopentanol, for which, in the data set on Aedes aegypti [1] (7% in isopropanol), the “Avg # Probes” value amounted to 16.2 and the “Avg % Repellency” value was found to be 67.8%.
